Patent US20220117938A1, “COMBINATON THERAPY WITH A DON PRODRUG AND AN IMMUNE CHECKPOINT INHIBITOR” (DRACEN PHARMACEUTICALS, INC., priority 2019, published 2022)

Test system: MC-38 tumors
Assay: Anti-tumor efficacy of Compound 1 in the subcutaneous MC-38 murine colorectal cancer model: dose response (Example 1)
Assay type: in vivo, Mus musculus
Settings: for Tumor volume (mm^3), Mean ± SEM: n = 8; for RTV at day 14 / T/C (%) / TGI (%) / Tumor Size (mm^3) at day 14: day 14; for ILS (%) / MST: endpoint tumor volume 2000 mm^3
Experimental: Female C57BL/6 mice were inoculated subcutaneously at right flank with MC-38 cells for tumor development. Four days after tumor inoculation, 64 mice with tumor size ranging from 50-92 mm^3 (average tumor size 63 mm^3) were selected and assigned into 8 groups using stratified randomization with 8 mice per group based upon their tumor volumes. The treatments were started from the day of randomization (defined as D0), Group 1 was treated with Vehicle (Tween 80:Ethanol:Saline—5:5:90 v/v/v), S.C. QD, Group 2 was treated with Compound 1 (0.1 mg/kg), S.C. QD, Group 3 was treated with Compound 1 (0.3 mg/kg), S.C. QD, Group 4 was treated with Compound 1 (0.5 mg/kg), S.C. QD, Group 5 was treated with Compound 1 (1 mg/kg), S.C. QD, Group 6 was treated with Compound 1 (3 mg/kg), S.C. QD*5 days followed by Compound 1 (1 mg/kg), S.C. QD*9 days (2 cycles), Group 7 was treated with Compound 1 (1 mg/kg), S.C. QD*5 days followed by Compound 1 (0.3 mg/kg), S.C. QD*9 days (2 cycles) and Group 8 was treated with Compound 1 (0.15 mg/kg), S.C. BID. The tumor sizes were measured three times per week during the treatment. The entire study was terminated on D74 after start of the treatment.
Animal Species: Mus musculus; Strain: C57BL/6; Age: 6-8 weeks; Sex: female; Body weight (at treatment start): 17-21 g.
The MC-38 tumor cells were maintained in vitro as a monolayer culture in DMEM medium supplemented with 10% heat inactivated fetal bovine serum and 100 μg/mL penicillin streptomycin at 37° C. in an atmosphere of 5% CO2 in air. The tumor cells were routinely subcultured twice weekly by trypsin-EDTA treatment. The cells growing to a confluency around 70%-80% were harvested and counted for tumor inoculation. The cultured MC-38 were harvested, re-suspended in base medium at a density of 1×10^7 cells/mL with viability>90%. Each mouse was inoculated subcutaneously at the right flank with 1×10^6 in 0.1 ml base medium for tumor development.
The treatments were started on day 4 after tumor inoculation when the tumor size reached 50-92 mm^3 (average tumor size 63 mm^3). Each group consisted of 8 tumor bearing mice. The testing article was administrated at a dosing volume of […] to the mice according to the predetermined regimen shown in Table 1-1. Testing article formulations were prepared according to standard procedures. Details regarding tumor measurements and endpoints, and statistical analysis are provided in EXAMPLE 3.
Tumor sizes were measured three times a week in two dimensions using a caliper, and the volume expressed in mm^3 using the formula: V=0.5 a×b^2 where a and b are the long and short diameters of the tumor, respectively. The tumor sizes were then used for the calculations of both tumor growth inhibition (TGI) and T/C values.
TGI is calculated for each group using the formula: […]
TVTreatment_DayN is the average tumor volume of a treatment group on a given day, TVTreatment_Day0 is the average tumor volume of the treatment group on the first day of treatment, TVVehicle_DayN is the average tumor volume of the vehicle control group on a given day, and TVVehicle_Day0 is the average tumor volume of the vehicle group on the first day of treatment.
The T/C value (in percent) is an indication of antitumor effectiveness, T/C (%)=RTVTreatment/RTVControl×100% (RTVTreatment: the mean RTV of the treatment group; RTVControl: the mean RTV of the vehicle treated group). RTV (relative tumor volume)=TVDayN/TVDay0. TVDayN and TVDay0 is the tumor volume on day N and Day 0 respectively. T/C (%)≤42% is considered as significant antitumor activity and <10% is considered as highly significant antitumor activity by the National Cancer Institute criteria.
Animal survival curve: When an individual animal reached to the termination endpoint (TV>2000 mm^3), the mouse was euthanized. The time from treatment initiation to the termination was deemed as its survival time. Survival curve was plotted by Kaplan-Meier method. Median survival time (MST) was calculated for each group. […]

[1] = 1 & 0.3 mg/kg (1 mg/kg QDx5 then 0.3 mg/kg QDx9 S.C.)
[2] = 3 & 1 mg/kg (3 mg/kg QDx5 then 1 mg/kg QDx9 S.C.)
[3] = Treatment (0.1) mg/kg, last line of the table

## CC(=O)N[C@@H](Cc1c[nH]c2ccccc12)C(=O)N[C@@H](CCC(=O)C=[N+]=[N-])C(=O)OC(C)C [Compound 1, Isopropyl (S)-2-((S)-2-acetamido-3-(1H-indol-3-yl)propanamido)-6-diazo-5-oxohexanoate]
0.1 mg/kg S.C. QD, Day 0
  Tumor volume (mm^3), Mean ± SEM: 62 ± 4 mm^3
0.1 mg/kg S.C. QD, Day 2
  Tumor volume (mm^3), Mean ± SEM: 91 ± 10 mm^3
0.1 mg/kg S.C. QD, Day 4
  Tumor volume (mm^3), Mean ± SEM: 112 ± 11 mm^3
0.1 mg/kg S.C. QD, Day 7
  Tumor volume (mm^3), Mean ± SEM: 183 ± 32 mm^3
0.1 mg/kg S.C. QD, Day 9
  Tumor volume (mm^3), Mean ± SEM: 247 ± 40 mm^3
0.1 mg/kg S.C. QD, Day 11
  Tumor volume (mm^3), Mean ± SEM: 368 ± 72 mm^3
0.1 mg/kg S.C. QD, Day 14
  Tumor volume (mm^3), Mean ± SEM: 744 ± 154 mm^3
0.1 mg/kg S.C. QD
  RTV at day 14: 12.29 ± 7.63
  T/C (%): 40.26%
  TGI (%): 62.52%
  Tumor Size (mm^3) at day 14: 743.79 ± 153.64 mm^3
0.1 mg/kg
  ILS (%): 22%
  MST: 19.5 days
0.15 mg/kg (BID)
  ILS (%): 88%
  MST: 30 days
0.15 mg/kg S.C. BID, Day 0
  Tumor volume (mm^3), Mean ± SEM: 63 ± 5 mm^3
0.15 mg/kg S.C. BID, Day 2
  Tumor volume (mm^3), Mean ± SEM: 87 ± 6 mm^3
0.15 mg/kg S.C. BID, Day 4
  Tumor volume (mm^3), Mean ± SEM: 109 ± 6 mm^3
0.15 mg/kg S.C. BID, Day 7
  Tumor volume (mm^3), Mean ± SEM: 195 ± 28 mm^3
0.15 mg/kg S.C. BID, Day 9
  Tumor volume (mm^3), Mean ± SEM: 237 ± 30 mm^3
0.15 mg/kg S.C. BID, Day 11
  Tumor volume (mm^3), Mean ± SEM: 288 ± 43 mm^3
0.15 mg/kg S.C. BID, Day 14
  Tumor volume (mm^3), Mean ± SEM: 369 ± 56 mm^3
0.3 mg/kg S.C. QD, Day 0
  Tumor volume (mm^3), Mean ± SEM: 62 ± 4 mm^3
0.3 mg/kg S.C. QD, Day 2
  Tumor volume (mm^3), Mean ± SEM: 76 ± 5 mm^3
0.3 mg/kg S.C. QD, Day 4
  Tumor volume (mm^3), Mean ± SEM: 88 ± 7 mm^3
0.3 mg/kg S.C. QD, Day 7
  Tumor volume (mm^3), Mean ± SEM: 110 ± 14 mm^3
0.3 mg/kg S.C. QD, Day 9
  Tumor volume (mm^3), Mean ± SEM: 143 ± 26 mm^3
0.3 mg/kg S.C. QD, Day 11
  Tumor volume (mm^3), Mean ± SEM: 140 ± 29 mm^3
0.3 mg/kg S.C. QD, Day 14
  Tumor volume (mm^3), Mean ± SEM: 235 ± 80 mm^3
0.3 mg/kg S.C. QD
  RTV at day 14: 3.83 ± 3.95
  T/C (%): 12.54%
  TGI (%): 90.47%
  Tumor Size (mm^3) at day 14: 235.18 ± 79.89 mm^3
0.3 mg/kg
  ILS (%): 94%
  MST: 31 days
0.5 mg/kg S.C. QD, Day 0
  Tumor volume (mm^3), Mean ± SEM: 63 ± 5 mm^3
0.5 mg/kg S.C. QD, Day 2
  Tumor volume (mm^3), Mean ± SEM: 79 ± 4 mm^3
0.5 mg/kg S.C. QD, Day 4
  Tumor volume (mm^3), Mean ± SEM: 97 ± 8 mm^3
0.5 mg/kg S.C. QD, Day 7
  Tumor volume (mm^3), Mean ± SEM: 112 ± 8 mm^3
0.5 mg/kg S.C. QD, Day 9
  Tumor volume (mm^3), Mean ± SEM: 109 ± 7 mm^3
0.5 mg/kg S.C. QD, Day 11
  Tumor volume (mm^3), Mean ± SEM: 84 ± 9 mm^3
0.5 mg/kg S.C. QD, Day 14
  Tumor volume (mm^3), Mean ± SEM: 97 ± 17 mm^3
0.5 mg/kg S.C. QD
  RTV at day 14: 1.63 ± 0.88
  T/C (%): 5.33%
  TGI (%): 98.16%
  Tumor Size (mm^3) at day 14: 96.6 ± 16.6 mm^3
0.5 mg/kg
  ILS (%): 131%
  MST: 37 days
1 mg/kg QDx5 then 0.3 mg/kg QDx9 S.C., 2 cycles, Day 0
  Tumor volume (mm^3), Mean ± SEM: 63 ± 4 mm^3
1 mg/kg QDx5 then 0.3 mg/kg QDx9 S.C., 2 cycles, Day 2
  Tumor volume (mm^3), Mean ± SEM: 73 ± 5 mm^3
1 mg/kg QDx5 then 0.3 mg/kg QDx9 S.C., 2 cycles, Day 4
  Tumor volume (mm^3), Mean ± SEM: 85 ± 7 mm^3
1 mg/kg QDx5 then 0.3 mg/kg QDx9 S.C., 2 cycles, Day 7
  Tumor volume (mm^3), Mean ± SEM: 97 ± 10 mm^3
1 mg/kg QDx5 then 0.3 mg/kg QDx9 S.C., 2 cycles, Day 9
  Tumor volume (mm^3), Mean ± SEM: 101 ± 9 mm^3
1 mg/kg QDx5 then 0.3 mg/kg QDx9 S.C., 2 cycles, Day 11
  Tumor volume (mm^3), Mean ± SEM: 116 ± 19 mm^3
1 mg/kg QDx5 then 0.3 mg/kg QDx9 S.C., 2 cycles, Day 14
  Tumor volume (mm^3), Mean ± SEM: 119 ± 22 mm^3
1 mg/kg S.C. QD, Day 0
  Tumor volume (mm^3), Mean ± SEM: 62 ± 4 mm^3
1 mg/kg S.C. QD, Day 2
  Tumor volume (mm^3), Mean ± SEM: 74 ± 5 mm^3
1 mg/kg S.C. QD, Day 4
  Tumor volume (mm^3), Mean ± SEM: 85 ± 5 mm^3
1 mg/kg S.C. QD, Day 7
  Tumor volume (mm^3), Mean ± SEM: 94 ± 5 mm^3
1 mg/kg S.C. QD, Day 9
  Tumor volume (mm^3), Mean ± SEM: 100 ± 7 mm^3
1 mg/kg S.C. QD, Day 11
  Tumor volume (mm^3), Mean ± SEM: 80 ± 8 mm^3
1 mg/kg S.C. QD, Day 14
  Tumor volume (mm^3), Mean ± SEM: 68 ± 12 mm^3
1 mg/kg S.C. QD
  RTV at day 14: 1.13 ± 0.67
  T/C (%): 3.71%
  TGI (%): 99.69%
  Tumor Size (mm^3) at day 14: 68.23 ± 12.12 mm^3
1 mg/kg, then 0.3 mg/kg
  ILS (%): 131%
  MST: 37 days
1 mg/kg
  ILS (%): 144%
  MST: 39 days
3 mg/kg QDx5 then 1 mg/kg QDx9 S.C., 2 cycles, Day 0
  Tumor volume (mm^3), Mean ± SEM: 63 ± 5 mm^3
3 mg/kg QDx5 then 1 mg/kg QDx9 S.C., 2 cycles, Day 2
  Tumor volume (mm^3), Mean ± SEM: 70 ± 3 mm^3
3 mg/kg QDx5 then 1 mg/kg QDx9 S.C., 2 cycles, Day 4
  Tumor volume (mm^3), Mean ± SEM: 83 ± 7 mm^3
3 mg/kg QDx5 then 1 mg/kg QDx9 S.C., 2 cycles, Day 7
  Tumor volume (mm^3), Mean ± SEM: 87 ± 8 mm^3
3 mg/kg QDx5 then 1 mg/kg QDx9 S.C., 2 cycles, Day 9
  Tumor volume (mm^3), Mean ± SEM: 90 ± 6 mm^3
3 mg/kg QDx5 then 1 mg/kg QDx9 S.C., 2 cycles, Day 11
  Tumor volume (mm^3), Mean ± SEM: 79 ± 10 mm^3
3 mg/kg QDx5 then 1 mg/kg QDx9 S.C., 2 cycles, Day 14
  Tumor volume (mm^3), Mean ± SEM: 43 ± 4 mm^3
3 mg/kg, then 1 mg/kg
  ILS (%): 131%
  MST: 37 days
[1]
  RTV at day 14: 1.85 ± 0.82
  T/C (%): 6.05%
  TGI (%): 96.95%
  Tumor Size (mm^3) at day 14: 118.69 ± 21.92 mm^3
[2]
  RTV at day 14: 0.69 ± 0.16
  T/C (%): 2.27%
  TGI (%): 101.09%
  Tumor Size (mm^3) at day 14: 42.91 ± 3.89 mm^3
[3]
  RTV at day 14: 5.99 ± 2.92
  T/C (%): 19.62%
  TGI (%): 83.19%
  Tumor Size (mm^3) at day 14: 369.41 ± 56.37 mm^3
